Results taken from paper PMC10689823, “Discovery of a Drug-like, Natural Product-Inspired DCAF11 Ligand Chemotype” (Nature Communications, 2023).
Several values for one entry are separate records, joined by “and”; a condition that tells them apart may be missing. Equal entries are not always repeated.

Tests used:
Type in all cases: cell-based
BRD2 [1] = target: T1, BRD2 (Homo sapiens, UniProt P25440); experiment: BRD2 levels by Western blot in KBM7 cells (WT, DCAF11 knockout, DDB1 knockout); parameters: endogenous in cells; host or cells: KBM7 (WT, DCAF11 KO, DDB1 KO); details: 9 at 3 μM, 10 at 10 μM, 11 at 10 μM; 6 h
Method: (§1) Cells were washed with PBS and lysed in lysis buffer (50 mM Tris-HCl, pH 7.4, 150 mM NaCl, 1% Triton X-100, 1% sodium deoxycholate, 0.1% SDS) with complete protease inhibitor cocktail (Roche, 11836170001) for 30 min on ice. For Ramos cells, cell pellets were lysed in lysis buffer (50 mM Tris-HCl, pH 8, 150 mM NaCl, 1% NP-40, 0.5% sodium deoxycholate) with complete protease inhibitor cocktail. After centrifugation at 16,000 x g, the supernatant was transferred into a new tube and the protein concentration was determined by DC protein assay (BIO-RAD, 5000116). Proteins were separated by SDS-PAGE and transferred to a PVDF membrane (Thermo scientific, 0.45 μm, 88518). For PDEδ, BRD2, GAPDH, BRD4, Vinculin and BTK, the membranes were blocked with Intercept® Blocking Buffer (LI-COR Biosciences, 927-70001) at room temperature for 1 h. The primary antibodies for these proteins were diluted with Intercept® Blocking Buffer (1:500 for PDEδ, 1:3000 for Vinculin, and 1:1000 for other proteins) and incubated with the membranes overnight at 4 °C. Membranes were washed with PBS + 0.1% Tween 20 (PBS-T) five times and incubated with secondary antibodies conjugated to IRDye® Infrared Fluorescent Dyes (1:5000, LI-COR Biosciences) at room temperature for 1 h with protection from light. After washing the membrane, signals were visualized using the ChemiDoc MP Imaging System (BIO-RAD Laboratories). For detection of LC3B, BRD3, BLK, DCAF11, DDB1 RBX1, FIP200, V5- and FLAG-Tag the membranes were blocked with 5% milk in PBS-T at room temperature for 1 h. The primary antibodies for these proteins were diluted in 5% milk in PBS-T buffer (1:200 for BRD3, 1:1000 for other proteins) and incubated with the membranes overnight at 4 °C. Membranes were washed with PBS-T five times and incubated with HRP secondary antibodies (1:1500) at room temperature for 1 h. After washing the membrane, protein detection was performed using Western blotting detection reagent (Thermo Scientific, 34095) and the ChemiDoc MP Imaging System (BIO-RAD). Relative band intensities were quantified using Image Lab (BIO-RAD).
DCAF11- or FIP200 (RB1CC1)-targeting sgRNAs were lentivirally packaged using PEI transfection of Lenti-X cells. The viral supernatant was harvested after 72 h, cleared of cellular debris by filtration through a 0.45-µm PES filter and stored in aliquots at −80 °C. The appropriate amount of viral supernatant was transduced into KBM7 cells (1 × 10^6 cells/mL) via spinfection (2000 rpm, 1 h, 37 °C) with polybrene (8 µg/mL). Two days post transduction, the cells were selected with puromycin (1 µg/mL) for a total of 5 days, after which the knockout pools were validated via western blotting.

BRD2 [2] = target: T1, BRD2; experiment: BRD2 levels by Western blot in Jurkat cells; parameters: endogenous in cells; host or cells: Jurkat; Hep G2; MDA-MB-231; KBM7 (WT, DCAF11 KO, DDB1 KO)
Method: as §1

PDEδ = PDEδ (Homo sapiens, UniProt O43924); experiment: PDEδ levels by Western blot in Jurkat cells; parameters: endogenous in cells; host or cells: Jurkat; details: 6 h; for PDEδ degradation activity compared with degrader 5: 10 μM
Jurkat cells = experiment: Cell viability assay (CellTiter-Glo) in Jurkat cells; details: for Relative cell viability (%): Jurkat cells, 72 h, Fig. 4k; for Cell viability (%) relative to DMSO: individual replicates, Supplementary Fig. 7g
Method: (§2) Jurkat cells (3 × 10^3) and Hep G2 cells (3.5 × 10^3) were seeded in 96-well plates in 100 μL culture medium. Cells were treated with compounds dissolved in 50 μl medium at the indicated concentration for 72 h, at the same time, one plate of cells without compounds treatment was used for the cell count at time zero. After adding 40 μl of CellTiter-Glo® reagent (Promega, G7571) to each well for 10 min at room temperature, the luminescence was measured on a Spark® Multimode Microplate Reader (Tecan). The data was analyzed by the GraphPad Prism 9.0.

[3] = as above; details: human, Jurkat cells
Method: as §2

T1 sequence (P25440 whole entry): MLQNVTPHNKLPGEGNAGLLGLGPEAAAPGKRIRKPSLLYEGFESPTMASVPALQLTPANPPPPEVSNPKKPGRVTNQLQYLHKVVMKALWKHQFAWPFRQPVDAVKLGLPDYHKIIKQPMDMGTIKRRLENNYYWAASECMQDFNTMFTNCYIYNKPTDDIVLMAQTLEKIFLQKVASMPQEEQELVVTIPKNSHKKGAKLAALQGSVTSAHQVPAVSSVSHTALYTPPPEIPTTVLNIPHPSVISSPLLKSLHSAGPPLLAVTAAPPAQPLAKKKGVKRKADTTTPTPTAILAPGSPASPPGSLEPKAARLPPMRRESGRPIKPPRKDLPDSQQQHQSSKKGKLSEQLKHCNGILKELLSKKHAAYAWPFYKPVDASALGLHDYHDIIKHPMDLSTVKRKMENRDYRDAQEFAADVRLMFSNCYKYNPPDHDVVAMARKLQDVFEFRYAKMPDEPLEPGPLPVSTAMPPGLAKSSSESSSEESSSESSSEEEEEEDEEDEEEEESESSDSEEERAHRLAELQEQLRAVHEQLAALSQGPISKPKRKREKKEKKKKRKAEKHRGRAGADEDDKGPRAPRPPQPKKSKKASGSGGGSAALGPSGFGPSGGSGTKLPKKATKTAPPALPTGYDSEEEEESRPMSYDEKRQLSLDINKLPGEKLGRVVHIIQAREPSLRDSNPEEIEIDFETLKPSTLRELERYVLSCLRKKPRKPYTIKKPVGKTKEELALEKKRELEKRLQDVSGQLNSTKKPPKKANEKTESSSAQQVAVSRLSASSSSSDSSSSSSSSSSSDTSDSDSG
Sequence of PDEδ (O43924 whole entry): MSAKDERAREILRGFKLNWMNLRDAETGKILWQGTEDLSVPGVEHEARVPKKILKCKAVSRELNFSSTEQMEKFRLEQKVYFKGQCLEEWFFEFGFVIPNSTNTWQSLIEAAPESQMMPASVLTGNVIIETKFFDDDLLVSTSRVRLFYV

Cc1sc2c(c1C)C(c1ccc(Cl)cc1)=N[C@@H](CC(=O)NCCOCCOCCOCCOc1c(Br)cc(/C=C3\C(=O)Nc4ccc(I)cc43)cc1Br)c1nnc(C)n1-2 [Compound 11]
BRD2 degradation in DCAF11 knockout (KO1 and KO2) KBM7 cells (BRD2 [1]): abolished
efficiency of BRD2 degradation, 10 versus iodo analog 11 (BRD2 [2]; 6 h): comparable efficiency of BRD2 degradation

Cc1ccc(-n2nc3c(=O)n(CCCC(=O)NCCc4ccc(C(=O)NCCOCCOCCOCCOc5c(Br)cc(/C=C6\C(=O)Nc7ccc(I)cc76)cc5Br)cc4)nc(C)c3c2C)cc1 [Compound 6, (Z)-N-(2-(2-(2-(2-(2,6-dibromo-4-((5-iodo-2-oxoindolin-3-ylidene)methyl)phenoxy)ethoxy)ethoxy)ethoxy)ethyl)-4-(2-(4-(3,4-dimethyl-7-oxo-2-(p-tolyl)-2,7-dihydro-6H-pyrazolo[3,4-d]pyridazin-6-yl)butanamido)ethyl)benzamide]
remaining activity at 10 µM (PDEδ; Jurkat, DMSO pretreatment 2 h, then 10 μM, 6h, Fig. 1h, read-out: PDEδ/Vinculin intensity (relative to DMSO control group)): 55.4%

Cc1sc2c(c1C)C(c1ccc(Cl)cc1)=NC(CC(=O)NCCOCCOCCOCCOc1c(Br)cc(C=C3C(=O)N(c4ccccc4)c4ccccc43)cc1Br)c1nnc(C)n1-2 (stereo not drawn) [Compound 49]
remaining activity at 3 µM (BRD2 [2]; Jurkat, 6 h, 3 μM, 6 h, Fig. 4j, read-out: BRD2/Vinculin intensity (relative to DMSO control group)): 12.6%

Cc1ncsc1-c1ccc(CNC(=O)[C@@H]2C[C@@H](O)CN2C(=O)[C@@H](NC(=O)COCCOCCOCCNC(=O)C[C@@H]2N=C(c3ccc(Cl)cc3)c3c(sc(C)c3C)-n3c(C)nnc32)C(C)(C)C)cc1 [MZ1, reference compound]
BRD2 levels after washout (BRD2 [2]; 10 μM, 5 h prior to washout): can be washed out

Cc1ccc(-n2nc3c(=O)n(CCCC(=O)NCCc4ccc(C(=O)NCCOCCOCCOCCOc5c(Br)cc(C=C6C(=O)Nc7cc(Br)ccc76)cc5Br)cc4)nc(C)c3c2C)cc1 [Compound 54]
PDEδ degradation activity compared with degrader 5 (PDEδ): comparable or better degradation activity
completeness of PDEδ degradation (PDEδ): did not induce complete degradation

Cc1sc2c(c1C)C(c1ccc(Cl)cc1)=N[C@@H](CC(=O)OC(C)(C)C)c1nnc(C)n1-2 [JQ1, reference compound]
Relative cell viability (%) (Jurkat cells; 10 nM, 0.01 µM): 100.371% and 106.106%
Relative cell viability (%) (Jurkat cells; 30 nM, 0.03 µM): 87.8283% and 96.2473%
Relative cell viability (%) (Jurkat cells; 100 nM, 0.1 µM): 64.4714% and 60.7516%
Relative cell viability (%) (Jurkat cells; 300 nM, 0.3 µM): 45.1617% and 37.3276%
Relative cell viability (%) (Jurkat cells; 1000 nM, 1 µM): 18.9902% and 17.7354%
Relative cell viability (%) (Jurkat cells; 3000 nM, 3 µM): 9.435% and 7.082%
Relative cell viability (%) (Jurkat cells; 10000 nM, 10 µM): 4.364% and 3.464%
Relative cell viability (%) (Jurkat cells; 30000 nM, 30 µM): 1.255% and 1.237%
Cell viability (%) relative to DMSO (Jurkat cells; concentration 10 nmol/L): 103.479% and 107.527%
Cell viability (%) relative to DMSO (Jurkat cells; concentration 30 nmol/L): 101.884% and 107.914%
Cell viability (%) relative to DMSO (Jurkat cells; concentration 100 nmol/L): 89.9727% and 100.534%
Cell viability (%) relative to DMSO (Jurkat cells; concentration 300 nmol/L): 75.4252% and 84.9435%
Cell viability (%) relative to DMSO (Jurkat cells; concentration 1000 nmol/L): 55.019% and 62.5193%
Cell viability (%) relative to DMSO (Jurkat cells; concentration 3000 nmol/L): 46.7418% and 50.7086%
Cell viability (%) relative to DMSO (Jurkat cells; concentration 10000 nmol/L): 42.9072% and 46.8783%
Cell viability (%) relative to DMSO (Jurkat cells; concentration 30000 nmol/L): 37.1426% and 41.0159%
viability at 72 h, 10 nmol/L ([3]; concentration 10 nmol/L, individual replicates, Supplementary Fig. 7g, read-out: Cell viability (%) relative to DMSO): 94.3%
viability at 72 h, 30 nmol/L ([3]; concentration 30 nmol/L, individual replicates, Supplementary Fig. 7g, read-out: Cell viability (%) relative to DMSO): 90.8%
viability at 72 h, 100 nmol/L ([3]; concentration 100 nmol/L, individual replicates, Supplementary Fig. 7g, read-out: Cell viability (%) relative to DMSO): 82.6%
viability at 72 h, 300 nmol/L ([3]; concentration 300 nmol/L, individual replicates, Supplementary Fig. 7g, read-out: Cell viability (%) relative to DMSO): 69%
viability at 72 h, 1000 nmol/L ([3]; concentration 1000 nmol/L, individual replicates, Supplementary Fig. 7g, read-out: Cell viability (%) relative to DMSO): 54.6%
viability at 72 h, 3000 nmol/L ([3]; concentration 3000 nmol/L, individual replicates, Supplementary Fig. 7g, read-out: Cell viability (%) relative to DMSO): 46%
viability at 72 h, 10000 nmol/L ([3]; concentration 10000 nmol/L, individual replicates, Supplementary Fig. 7g, read-out: Cell viability (%) relative to DMSO): 46.5%
viability at 72 h, 30000 nmol/L ([3]; concentration 30000 nmol/L, individual replicates, Supplementary Fig. 7g, read-out: Cell viability (%) relative to DMSO): 40.9%
viability at 72 h, 0.01 µM ([3]; 72 h, 10 nM, Fig. 4k, read-out: Relative cell viability (%)): 89.4%
viability at 72 h, 0.03 µM ([3]; 72 h, 30 nM, Fig. 4k, read-out: Relative cell viability (%)): 77.8%
viability at 72 h, 0.1 µM ([3]; 72 h, 100 nM, Fig. 4k, read-out: Relative cell viability (%)): 52.1%
viability at 72 h, 0.3 µM ([3]; 72 h, 300 nM, Fig. 4k, read-out: Relative cell viability (%)): 35%
viability at 72 h, 1 µM ([3]; 72 h, 1000 nM, Fig. 4k, read-out: Relative cell viability (%)): 18.1%
viability at 72 h, 3 µM ([3]; 72 h, 3000 nM, Fig. 4k, read-out: Relative cell viability (%)): 8.86%
viability at 72 h, 10 µM ([3]; 72 h, 10000 nM, Fig. 4k, read-out: Relative cell viability (%)): 4.59%
viability at 72 h, 30 µM ([3]; 72 h, 30000 nM, Fig. 4k, read-out: Relative cell viability (%)): 1.85%
BRD2 protein levels, ligands alone or in combination (BRD2 [2]; 3 μM, 4 h): did not reduce BRD2 protein levels

Cc1ccc(-n2nc3c(=O)n(CCCC(=O)NCCc4ccc(C(=O)NCCOCCOCCOCCOc5c(Br)cc(C=C6C(=O)N(c7ccccc7)c7ccccc76)cc5Br)cc4)nc(C)c3c2C)cc1 [Compound 55]
PDEδ degradation activity compared with degrader 5 (PDEδ): comparable or better degradation activity
completeness of PDEδ degradation (PDEδ): did not induce complete degradation
